# From patent US7375086B2, “Modulators of Nod2 signaling” (The Regents of the University of Michigan, priority 2000, dated 2008)
# Columns and labels:
# [1] = system: Nod2-Fpk3; assay: Enforced oligomerization of Fpk3-Nod2 chimeric proteins, NF-κB reporter in HEK293T cells; type: cell-based, human
# Description: HEK293T cells were transfected with of control plasmid (−) or plasmids producing the indicated Myc-tagged Fpk3Nod2 proteins. Extracts from equal number of cells was immunoprecipitated and immunoblotted with rabbit anti-Myc antibody. […] 2×10^5 HEK293T cells were transfected with 1 ng of the indicated plasmids in the presence of pBVIx-luc and pEF-BOS-β-gal. 8 hr post-transfection, cells were treated with 500 nM AP1510 (black bars) or left untreated (white bars). 24 hr post-transfection, the κB-dependent transcription was determined as described below. Values represent mean ±SD of triplicate cultures.
# In the case of Nod1, its oligomerization appears to promote proximity of RICK and NF-κB activation. To test a similar role for Nod2, plasmids were constructed to express chimeric proteins in which wt or Nod2 mutants were fused to three tandem repeated dimerization domains of Fpk (Fpk3), which can be oligomerized by the cell-permeable ligand AP1510 (MacCorkle et al., Proc. Nat. Acad. Sci. U. S. A. 95: 3655-3660 [1998]). […] Because wt Nod2 alone induces NF-KB activation, we expressed suboptimal amounts of the chimeric Fpk3-Nod2 constructs into HEK293T cells. […] Similarly, NF-κB activation induced by a Nod2 P-loop mutant lacking the LRRs (K305RALRR), which have reduced ability to induce NF-κB activation, was enhanced by enforced oligomerization (FIG. 7C). […]
# [2] = system: NF-κB; assay: NF-κB binding activity by EMSA in nuclear extracts of PBMNC; type: cell-based, human; details: PBMNC nuclear extracts, EMSA
# Description: FIGS. 20C and D show PBMNC analyzed for expression of IL-1β (C) and A1 (D) transcripts by quantitative RT-PCR.
# Genotyping was performed using a ddNTP primer extension system. Nuclear extracts from LPS-stimulated cells were pre-incubated with antibody specific for p50 subunit of NF-κB to monitor the size of the NF-κB-DNA complex. cDNA was amplified with specific primers for human IL-1β, glyceraldehyde-3-phosphate-dehydrogenase (GAPDH) as described (5) and A1 (5′-[…]-3′ (SEQ ID NO: 53) and 5′-[…]-3′ (SEQ ID NO:54)). The levels of IL-1β and A1 transcripts normalized to that of GAPDH were expressed relative to those in untreated cells that were considered as baseline. Specificity of the desired PCR products was determined by melting curve analysis. Histograms represent the mean ±S.D. of triplicate analyses.
# The NOD2 variants associated with Crohn's disease, R702W, G908R and L1007fsinsC, occur on the same haplotype background, which includes the common P268S polymorphism (Hugot et al., Nature 411:599 [2001]; Ogura et al., Nature 411:603 [2001]). To compare the ability of normal and mutant NOD2 proteins to induce NF-κB activity in response to MDP, the NOD2 proteins were expressed in cells and evaluated in a functional assay. […] The role of NOD2 in the recognition of MDP by primary cells from normal and Crohn's disease patients was next determined. A panel of healthy and Crohn's disease individuals were genotyped for the disease-associated NOD2 alleles and two individuals (one without clinical evidence of disease and one individual with Crohn's disease) who were homozygous for the loss-of-function L1007fsinsC mutation were identified (FIG. 20A). The identification of apparently healthy individuals homozygous for L1007fsinsC is expected in that the penetrance of the L1007fsinsC mutation is not complete (Hugot et al., supra; Ogura et al., supra; Hampe et al., Lancet 357:1925 [2001]; Ahmad et al., Gastroenterology 122:854 [2002]). Peripheral blood mononuclear cells (PBMNC) that are known to express NOD2 were isolated, incubated with MDP or LPS and NF-κB activation was assessed in nuclear extracts by an electrophoretic mobility shift assay (EMSA).
# [3] = target: T1, Nod2 (Homo sapiens, UniProt Q9HC29, R703H); assay: NF-κB reporter assay in HEK293T/HEK293 cells expressing Nod2; type: cell-based; details: 100 ng/ml (FIG. 18C)
# T1 construct: ligated to generate an unique cDNA containing the entire open reading frame of Nod2; expressed in transfected cells; host or cells: HEK293T
# T1 sequence (Q9HC29 whole entry R703H): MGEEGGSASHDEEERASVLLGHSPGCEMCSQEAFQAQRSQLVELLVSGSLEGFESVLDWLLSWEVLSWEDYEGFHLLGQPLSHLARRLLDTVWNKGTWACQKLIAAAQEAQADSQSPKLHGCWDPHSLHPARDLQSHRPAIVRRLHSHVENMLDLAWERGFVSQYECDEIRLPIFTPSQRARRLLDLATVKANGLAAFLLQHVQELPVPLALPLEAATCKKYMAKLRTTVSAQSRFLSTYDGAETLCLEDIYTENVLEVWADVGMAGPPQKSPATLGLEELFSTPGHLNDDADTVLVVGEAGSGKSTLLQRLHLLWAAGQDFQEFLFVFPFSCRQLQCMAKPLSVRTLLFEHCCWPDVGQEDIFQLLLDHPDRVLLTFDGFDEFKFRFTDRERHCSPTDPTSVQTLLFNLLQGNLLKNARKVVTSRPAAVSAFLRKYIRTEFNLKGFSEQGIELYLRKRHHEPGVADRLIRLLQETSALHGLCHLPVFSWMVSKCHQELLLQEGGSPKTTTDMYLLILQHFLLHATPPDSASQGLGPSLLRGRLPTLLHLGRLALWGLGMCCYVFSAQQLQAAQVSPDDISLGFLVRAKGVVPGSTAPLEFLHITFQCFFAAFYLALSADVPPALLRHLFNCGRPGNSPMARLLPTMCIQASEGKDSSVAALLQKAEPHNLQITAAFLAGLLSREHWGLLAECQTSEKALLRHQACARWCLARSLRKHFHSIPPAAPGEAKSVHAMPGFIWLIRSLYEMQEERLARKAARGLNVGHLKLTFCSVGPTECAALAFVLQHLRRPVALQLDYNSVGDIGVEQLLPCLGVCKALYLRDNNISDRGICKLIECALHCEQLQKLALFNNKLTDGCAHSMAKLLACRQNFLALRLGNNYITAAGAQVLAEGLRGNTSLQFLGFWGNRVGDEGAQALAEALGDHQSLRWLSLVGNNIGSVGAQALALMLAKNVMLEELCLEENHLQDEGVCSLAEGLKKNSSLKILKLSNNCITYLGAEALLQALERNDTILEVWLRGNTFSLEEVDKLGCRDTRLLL
# [4] = target: T2, TLR2 (Homo sapiens, UniProt O60603); assay: NF-κB reporter assay in HEK293 cells stably transfected with TLR2; type: cell-based; details: MDP 100 ng/ml, sBLP 1000 ng/ml
# T2 construct: expressed in transfected cells
# T2 sequence (O60603 21-784, species assumed): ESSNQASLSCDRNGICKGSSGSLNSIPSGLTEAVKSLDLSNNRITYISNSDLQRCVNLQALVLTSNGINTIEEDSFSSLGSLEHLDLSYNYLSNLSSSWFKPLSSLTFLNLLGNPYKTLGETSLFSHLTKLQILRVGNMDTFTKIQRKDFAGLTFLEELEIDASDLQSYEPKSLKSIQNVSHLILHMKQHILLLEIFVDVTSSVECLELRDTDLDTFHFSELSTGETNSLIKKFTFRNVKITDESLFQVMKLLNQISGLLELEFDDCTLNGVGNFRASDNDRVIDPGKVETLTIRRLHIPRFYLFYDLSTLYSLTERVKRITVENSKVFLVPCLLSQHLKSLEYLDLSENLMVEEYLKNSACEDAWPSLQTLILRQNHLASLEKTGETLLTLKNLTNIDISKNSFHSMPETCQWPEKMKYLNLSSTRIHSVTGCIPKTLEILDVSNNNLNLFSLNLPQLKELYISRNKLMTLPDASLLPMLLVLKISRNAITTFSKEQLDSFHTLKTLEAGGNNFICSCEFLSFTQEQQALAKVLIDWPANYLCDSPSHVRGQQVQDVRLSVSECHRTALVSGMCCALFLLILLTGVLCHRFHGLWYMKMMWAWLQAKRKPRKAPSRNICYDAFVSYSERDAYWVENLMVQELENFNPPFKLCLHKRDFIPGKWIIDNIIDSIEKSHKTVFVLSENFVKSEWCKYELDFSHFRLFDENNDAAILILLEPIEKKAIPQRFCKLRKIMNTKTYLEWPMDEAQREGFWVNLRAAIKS
# Description: Molecules with two copies (2mer) or four copies (4mer) of GlcNAc-MurNAc with attached L-Ala-D-isoGln and their counterparts lacking dipeptide (2mer-aa, 4mer-aa) were synthesized as described (Inamura et al., Tetrahedron Lett. 42:7613 [2001]). Eight hours post-transfection, the indicated amount of each compound was added to the cells and the ability of each compound to activate NF-κB was determined as above. The ability of MDP (100 ng/ml) and sBLP (1000 ng/ml) to activate NF-κB was determined by transfection of 0.3 ng pcDNA3-Nod2 (Nod2) or control plasmid (−) into HEK293 cells or in HEK293 cells stably transfected with TLR2 (TLR2) or with control plasmid (−) and reporter pBxIV-luc and pEF-BOS-β-gal plasmids. Values represent the mean of normalized data ±S.D. of triplicate cultures.
# [5] = system: NF-κB; assay: NF-κB luciferase reporter assay in HEK293T cells transfected with control plasmid; type: cell-based, human
# Description: Induction of NF-κB activation was determined in triplicate cultures of HEK293T cells transfected with 30 ng of Nod2 plasmid (open bars) or stimulated with 10 ng/ml of TNFα for 4 h (closed bars) and 70 ng of I-κBα S32A/S36A, IKKα K44A, IKKβ K44A, RICK (406-540) or RIP (558-671) expression plasmid in the presence of pBVIx-Luc and pEF-BOS-β-gal. Results are presented as a percent of values obtained with Nod2 and control plasmid. In the experiment shown, Nod2 and TNFα induced 58±8-fold and 14±1-fold activation of NF-κB, respectively. Values represent mean ±SD of triplicate cultures. […] Induction of NF-κB activation was determined from triplicate cultures of I×10^5 HEK293T cells co-transfected with the indicated plasmids and pBVIx-Luc in the presence of control plasmid pEF-BOS-β-gal. […]
# 8 hr post-transfection, cells were treated with 10 μg/ml of each pathogen product, lipoteichoic acid (LTA) or peptidoglycan (PGN) from Staphylococcus aureus, lipopolysaccharide (LPS) from Escherichia coli 055:B5, mannan from Candida albicans 20A, synthetic soluble bacterial lipoprotein (SBLP) or left untreated (Control). 24 hr post-transfection, κB-dependent transcription was determined by luciferase activity relative and values normalized to β-galactosidase in triplicate cultures. […] Twenty-four hr post-transfection, κB-dependent transcription was determined as described above. […]
# [6] = system: NF-κB; assay: NF-κB reporter assay in parental Rat1 fibroblasts; type: cell-based, rat
# Description: Induction of NF-κB activation was determined in triplicate cultures of HEK293T cells transfected with 30 ng of Nod2 plasmid (open bars) or stimulated with 10 ng/ml of TNFα for 4 h (closed bars) and 70 ng of I-κBα S32A/S36A, IKKα K44A, IKKβ K44A, RICK (406-540) or RIP (558-671) expression plasmid in the presence of pBVIx-Luc and pEF-BOS-β-gal. Results are presented as a percent of values obtained with Nod2 and control plasmid. In the experiment shown, Nod2 and TNFα induced 58±8-fold and 14±1-fold activation of NF-κB, respectively. Values represent mean ±SD of triplicate cultures. […] Induction of NF-κB activation was determined from triplicate cultures of I×10^5 HEK293T cells co-transfected with the indicated plasmids and pBVIx-Luc in the presence of control plasmid pEF-BOS-β-gal. Values represent mean ±SD of triplicate cultures.
# NF-κB activation assays. NF-κB activation assays were performed as described (Inohara et al., [1999] supra, Inohara et al., [2000], supra). […] 24 hr post-transfection, cell extracts were prepared and its relative luciferase activity was measured as described (Inohara et al., [1999] supra, Inohara et al., [2000], supra). […]
molecule,measurement,setting,value
CCC(C)(C)C(=O)C(=O)N1CCCC[C@H]1C(=O)O[C@H](CCc1ccc(OC)c(OC)c1)c1cccc(OCC(=O)NCCNC(=O)COc2cccc([C@@H](CCc3ccc(OC)c(OC)c3)OC(=O)[C@@H]3CCCCN3C(=O)C(=O)C(C)(C)CC)c2)c1 [AP1510],NF-κB activation by Nod2-Fpk3 upon ligand,"[1]; 500 nM AP1510, suboptimal amounts (1 ng) of plasmid",induced NF-KB activation in a ligand-dependent manner
same,NF-κB activation by Nod2-Fpk3 construct lacking the LRRs,[1]; 500 nM AP1510 or untreated,induced NF-κB activation in the absence and presence of AP1510
Cc1ccc(S(=O)(=O)/C=C/C#N)cc1 [Bay11-7082],inhibition of the DNA binding complex induced by MDP,[2],inhibited
CC(=O)NC1C(O)OC(CO)C(O)C1OC(C)C(=O)NC(C)C(=O)NC(CCC(=O)O)C(N)=O [MurNAc-L-Ala-L-isoGln],ability to stimulate NOD2 (stereoselectivity),[3],eliminated the ability of MDP to stimulate NOD2
PaM3CysSerLyS4 [SBLP],TLR2-mediated cellular response (NF-κB),[4],mediated a cellular response
same,induction of NF-κB reporter gene activity,"[5]; HEK293T cells transfected with control plasmid, 10 μg/ml of each pathogen product",No significant induction of reporter gene activity
TNFα,NF-κB activity in parental Rat1 cells,[6],induced NF-κB activity
same,activation of NF-κB,[5]; HEK293T cells stimulated with 10 ng/ml of TNFα for 4 h,14±1 fold
